In ChEMBL document CHEMBL3991601, “The target landscape of clinical kinase drugs” (Science, 2017):
Activity calls are given as the source filed them. Cut-off read from the data, not from the text of the source, for most assays here: actives have a measured Kd and inactives only a lower limit.

Experiments:
[1] = target: T1, Aurora kinase A (Homo sapiens, UniProt O14965)
T1 sequence (O14965 whole entry): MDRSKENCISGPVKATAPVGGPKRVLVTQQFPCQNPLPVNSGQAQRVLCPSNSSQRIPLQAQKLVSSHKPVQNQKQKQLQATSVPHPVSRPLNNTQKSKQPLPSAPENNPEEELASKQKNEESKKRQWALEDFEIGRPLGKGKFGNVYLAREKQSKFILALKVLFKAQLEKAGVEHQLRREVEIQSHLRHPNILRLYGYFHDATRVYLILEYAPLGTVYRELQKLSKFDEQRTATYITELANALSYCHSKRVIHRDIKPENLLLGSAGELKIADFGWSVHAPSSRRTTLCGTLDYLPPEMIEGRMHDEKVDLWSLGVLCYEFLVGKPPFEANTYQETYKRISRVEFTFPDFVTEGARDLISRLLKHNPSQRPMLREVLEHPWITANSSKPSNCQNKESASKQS

[2] = target: Cyclin-dependent kinase 7 (Homo sapiens, UniProt P50613)
[3] = target: Serine/threonine-protein kinase/endoribonuclease IRE1 (Homo sapiens, UniProt O75460)
[4] = target: Serine/threonine-protein kinase/endoribonuclease IRE2 (Homo sapiens, UniProt Q76MJ5)
[5] = target: Serine/threonine-protein kinase pim-1 (Homo sapiens, UniProt P11309)
[6] = target: T2, Membrane-associated tyrosine- and threonine-specific cdc2-inhibitory kinase (Homo sapiens, UniProt Q99640)
T2 sequence (Q99640 whole entry): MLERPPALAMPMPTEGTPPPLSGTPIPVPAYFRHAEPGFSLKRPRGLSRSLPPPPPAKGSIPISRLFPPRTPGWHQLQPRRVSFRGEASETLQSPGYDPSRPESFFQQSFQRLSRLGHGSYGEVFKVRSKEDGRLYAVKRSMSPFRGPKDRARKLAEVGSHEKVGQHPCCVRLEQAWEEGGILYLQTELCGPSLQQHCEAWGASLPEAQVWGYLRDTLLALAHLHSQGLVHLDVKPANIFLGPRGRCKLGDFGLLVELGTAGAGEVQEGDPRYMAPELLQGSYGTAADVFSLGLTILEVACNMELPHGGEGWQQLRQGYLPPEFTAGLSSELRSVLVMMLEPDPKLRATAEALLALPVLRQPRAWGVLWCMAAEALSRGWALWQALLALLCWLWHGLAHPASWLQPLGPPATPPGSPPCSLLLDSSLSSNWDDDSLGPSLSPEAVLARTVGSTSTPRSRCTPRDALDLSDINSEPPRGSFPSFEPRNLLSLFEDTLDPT

[7] = target: T3, Serine/threonine-protein kinase TAO1 (Homo sapiens, UniProt Q7L7X3)
T3 sequence (Q7L7X3 whole entry): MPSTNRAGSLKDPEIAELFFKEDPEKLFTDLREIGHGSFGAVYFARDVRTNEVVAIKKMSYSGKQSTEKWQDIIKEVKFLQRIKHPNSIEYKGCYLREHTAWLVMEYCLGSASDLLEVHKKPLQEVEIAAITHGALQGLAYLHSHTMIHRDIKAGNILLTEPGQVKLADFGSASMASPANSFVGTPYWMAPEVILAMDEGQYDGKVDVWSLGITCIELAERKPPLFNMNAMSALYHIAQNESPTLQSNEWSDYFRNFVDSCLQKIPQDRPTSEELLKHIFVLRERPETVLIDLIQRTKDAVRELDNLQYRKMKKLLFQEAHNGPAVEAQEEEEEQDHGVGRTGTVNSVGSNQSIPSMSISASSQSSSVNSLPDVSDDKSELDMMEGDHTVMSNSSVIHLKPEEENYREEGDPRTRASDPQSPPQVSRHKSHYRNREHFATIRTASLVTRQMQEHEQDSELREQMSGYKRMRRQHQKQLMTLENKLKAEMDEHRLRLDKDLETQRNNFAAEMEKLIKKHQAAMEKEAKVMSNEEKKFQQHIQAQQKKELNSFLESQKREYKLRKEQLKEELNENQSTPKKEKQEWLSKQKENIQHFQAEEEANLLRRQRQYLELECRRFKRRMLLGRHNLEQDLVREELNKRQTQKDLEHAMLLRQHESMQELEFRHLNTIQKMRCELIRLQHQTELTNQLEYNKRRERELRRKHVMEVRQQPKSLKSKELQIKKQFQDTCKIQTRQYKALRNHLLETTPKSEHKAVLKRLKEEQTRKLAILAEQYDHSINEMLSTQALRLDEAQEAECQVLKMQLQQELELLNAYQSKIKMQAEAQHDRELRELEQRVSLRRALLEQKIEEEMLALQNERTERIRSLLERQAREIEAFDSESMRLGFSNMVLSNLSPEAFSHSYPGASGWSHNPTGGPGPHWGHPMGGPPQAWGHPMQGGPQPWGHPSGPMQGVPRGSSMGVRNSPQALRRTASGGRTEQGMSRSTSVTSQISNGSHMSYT

[8] = target: T4, General transcription and DNA repair factor IIH helicase subunit XPD (Homo sapiens, UniProt P18074); conditions: read-out: Kd apparent; k-562, colo 205, sk-n-be(2) and mv-4-11
T4 sequence (P18074 whole entry): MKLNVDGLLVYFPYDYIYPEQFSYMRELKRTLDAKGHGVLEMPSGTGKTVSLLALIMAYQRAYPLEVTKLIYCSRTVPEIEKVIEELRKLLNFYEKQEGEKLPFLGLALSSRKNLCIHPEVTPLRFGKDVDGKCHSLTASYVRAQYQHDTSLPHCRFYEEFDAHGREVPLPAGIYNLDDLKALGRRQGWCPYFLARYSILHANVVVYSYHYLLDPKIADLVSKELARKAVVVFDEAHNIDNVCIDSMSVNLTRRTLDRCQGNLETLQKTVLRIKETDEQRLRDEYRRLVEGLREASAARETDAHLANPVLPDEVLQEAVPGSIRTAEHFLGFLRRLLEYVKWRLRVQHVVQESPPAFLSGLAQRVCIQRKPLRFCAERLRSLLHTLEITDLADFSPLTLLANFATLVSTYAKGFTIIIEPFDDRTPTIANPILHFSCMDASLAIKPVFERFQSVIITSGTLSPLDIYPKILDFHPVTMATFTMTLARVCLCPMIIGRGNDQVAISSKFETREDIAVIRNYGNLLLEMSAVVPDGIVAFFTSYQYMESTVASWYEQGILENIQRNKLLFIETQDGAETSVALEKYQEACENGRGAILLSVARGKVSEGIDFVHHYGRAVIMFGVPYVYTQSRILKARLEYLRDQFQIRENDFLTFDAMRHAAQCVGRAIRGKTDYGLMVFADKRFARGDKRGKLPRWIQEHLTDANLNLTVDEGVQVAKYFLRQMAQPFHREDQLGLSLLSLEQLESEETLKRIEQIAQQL
Note: in the data inactive means no Kd found up to 30 µM.

Serine/threonine-protein kinase/endoribonuclease IRE1, sequence (O75460 whole entry): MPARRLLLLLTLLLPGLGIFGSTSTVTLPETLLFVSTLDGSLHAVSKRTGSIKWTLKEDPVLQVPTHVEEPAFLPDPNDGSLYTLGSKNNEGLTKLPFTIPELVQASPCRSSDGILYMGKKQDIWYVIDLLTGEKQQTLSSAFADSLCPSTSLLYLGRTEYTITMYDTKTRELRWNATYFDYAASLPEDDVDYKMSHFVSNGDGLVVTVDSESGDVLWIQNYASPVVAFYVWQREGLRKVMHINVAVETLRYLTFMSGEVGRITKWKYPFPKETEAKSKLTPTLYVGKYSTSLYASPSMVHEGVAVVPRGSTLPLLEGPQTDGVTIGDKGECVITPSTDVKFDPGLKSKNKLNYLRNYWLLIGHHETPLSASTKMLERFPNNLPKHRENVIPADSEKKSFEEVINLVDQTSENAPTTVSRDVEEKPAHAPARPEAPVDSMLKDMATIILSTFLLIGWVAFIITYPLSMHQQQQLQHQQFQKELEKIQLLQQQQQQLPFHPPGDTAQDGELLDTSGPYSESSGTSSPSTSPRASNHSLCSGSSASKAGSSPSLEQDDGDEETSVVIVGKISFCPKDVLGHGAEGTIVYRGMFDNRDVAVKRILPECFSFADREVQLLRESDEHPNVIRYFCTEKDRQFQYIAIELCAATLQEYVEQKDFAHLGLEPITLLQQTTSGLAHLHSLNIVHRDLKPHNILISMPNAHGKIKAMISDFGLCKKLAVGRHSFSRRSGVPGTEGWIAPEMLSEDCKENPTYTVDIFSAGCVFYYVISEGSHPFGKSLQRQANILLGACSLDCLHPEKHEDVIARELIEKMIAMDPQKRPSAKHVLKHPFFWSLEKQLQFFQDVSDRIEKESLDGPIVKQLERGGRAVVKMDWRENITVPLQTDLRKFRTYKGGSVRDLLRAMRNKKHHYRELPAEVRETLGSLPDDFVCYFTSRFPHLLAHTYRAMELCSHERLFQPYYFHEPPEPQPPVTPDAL
Serine/threonine-protein kinase pim-1, sequence (P11309 whole entry): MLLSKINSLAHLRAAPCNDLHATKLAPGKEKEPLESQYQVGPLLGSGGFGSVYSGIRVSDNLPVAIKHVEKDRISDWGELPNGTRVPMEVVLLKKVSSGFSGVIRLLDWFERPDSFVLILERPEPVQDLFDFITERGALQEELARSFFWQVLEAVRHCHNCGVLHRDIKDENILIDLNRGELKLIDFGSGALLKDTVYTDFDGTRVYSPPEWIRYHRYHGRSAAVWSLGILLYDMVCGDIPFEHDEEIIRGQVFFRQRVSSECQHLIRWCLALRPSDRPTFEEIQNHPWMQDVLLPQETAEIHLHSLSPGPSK
Cyclin-dependent kinase 7, sequence (P50613 whole entry): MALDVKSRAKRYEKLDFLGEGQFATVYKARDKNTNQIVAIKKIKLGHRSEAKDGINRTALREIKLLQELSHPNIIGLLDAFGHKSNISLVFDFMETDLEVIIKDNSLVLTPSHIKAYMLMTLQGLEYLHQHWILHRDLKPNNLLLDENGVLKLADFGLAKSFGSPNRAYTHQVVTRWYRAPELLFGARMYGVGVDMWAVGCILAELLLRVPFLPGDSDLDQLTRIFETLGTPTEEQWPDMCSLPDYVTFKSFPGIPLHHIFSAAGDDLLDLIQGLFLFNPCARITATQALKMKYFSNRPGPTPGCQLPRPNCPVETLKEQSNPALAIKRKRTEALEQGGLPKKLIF
Serine/threonine-protein kinase/endoribonuclease IRE2, sequence (Q76MJ5 whole entry): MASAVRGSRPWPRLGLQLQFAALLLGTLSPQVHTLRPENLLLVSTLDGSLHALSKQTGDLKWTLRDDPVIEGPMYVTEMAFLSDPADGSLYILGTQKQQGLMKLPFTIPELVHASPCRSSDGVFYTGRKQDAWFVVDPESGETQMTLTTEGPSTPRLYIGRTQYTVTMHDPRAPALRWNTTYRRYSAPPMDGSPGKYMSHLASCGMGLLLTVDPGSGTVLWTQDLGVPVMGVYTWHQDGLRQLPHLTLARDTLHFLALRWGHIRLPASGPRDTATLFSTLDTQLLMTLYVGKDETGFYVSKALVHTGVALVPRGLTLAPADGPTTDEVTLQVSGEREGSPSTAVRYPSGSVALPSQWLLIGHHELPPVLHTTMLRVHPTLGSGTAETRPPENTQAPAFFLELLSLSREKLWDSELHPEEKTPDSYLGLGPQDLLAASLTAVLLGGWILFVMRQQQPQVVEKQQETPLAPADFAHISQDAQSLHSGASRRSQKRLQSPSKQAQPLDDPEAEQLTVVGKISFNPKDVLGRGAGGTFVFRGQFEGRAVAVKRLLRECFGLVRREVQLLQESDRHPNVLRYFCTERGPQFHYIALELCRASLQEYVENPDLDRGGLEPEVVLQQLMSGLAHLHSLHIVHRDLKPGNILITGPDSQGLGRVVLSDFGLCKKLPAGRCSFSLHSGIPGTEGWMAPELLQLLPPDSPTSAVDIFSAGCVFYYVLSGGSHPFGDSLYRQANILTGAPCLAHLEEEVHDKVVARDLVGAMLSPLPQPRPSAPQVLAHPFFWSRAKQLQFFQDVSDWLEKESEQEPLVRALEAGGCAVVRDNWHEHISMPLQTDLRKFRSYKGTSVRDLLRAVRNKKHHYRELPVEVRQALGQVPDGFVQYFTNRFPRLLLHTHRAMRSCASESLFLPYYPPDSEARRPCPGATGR

| SMILES | Kd [1] | Kd [2] | Kd [3] | Kd [4] | Kd [5] | Kd [6] | Kd [7] | Kd [8] |
| --- | --- | --- | --- | --- | --- | --- | --- | --- |
| Cc1ccc(C(=O)Nc2ccc(Oc3cc4cnn(C)c4cc3-c3cn[nH]c3)c(F)c2)c(=O)n1-c1ccc(F)cc1 [MERESTINIB] | > 30 µM (inactive) | > 30 µM (inactive) | > 30 µM (inactive) | > 30 µM (inactive) | > 30 µM (inactive) | > 30 µM (inactive) | > 30 µM (inactive) | > 30 µM (inactive) |
| CNC(=O)c1cccc(-c2ccc3c(N4CCOC[C@@H]4C)nc(N4CCOC[C@@H]4C)nc3n2)c1 [VISTUSERTIB] | > 30 µM (inactive) | > 30 µM (inactive) | > 30 µM (inactive) | > 30 µM (inactive) | > 30 µM (inactive) | > 30 µM (inactive) | > 30 µM (inactive) | > 30 µM (inactive) |
| c1cc(OCCN2CCCCC2)cc(-c2n[nH]c3ccc(-c4nc[nH]n4)cc23)c1 [CC-401] | > 30 µM (inactive) | > 30 µM (inactive) | > 30 µM (inactive) | > 30 µM (inactive) | > 30 µM (inactive) | > 30 µM (inactive) | > 30 µM (inactive) | > 30 µM (inactive) |
| COc1cc(Nc2ncc(F)c(Nc3ccc4c(n3)N(COP(=O)(O)O)C(=O)C(C)(C)O4)n2)cc(OC)c1OC [FOSTAMATINIB] | 0.3 µM (active) | > 30 µM (inactive) | > 30 µM (inactive) | > 30 µM (inactive) | > 30 µM (inactive) | > 30 µM (inactive) | > 30 µM (inactive) | > 30 µM (inactive) |
| COc1ccc2c(OCc3nnc4ccc(-c5ccccc5)nn34)ccnc2c1 [AMG-208] | > 30 µM (inactive) | > 30 µM (inactive) | > 30 µM (inactive) | > 30 µM (inactive) | > 30 µM (inactive) | > 30 µM (inactive) | > 30 µM (inactive) | > 30 µM (inactive) |
| CC(C)CC(=O)Nc1[nH]nc2c1CN(C(=O)C1CCN(C)CC1)C2(C)C [PHA-793887] | > 30 µM (inactive) | 0.008 µM (active) | > 30 µM (inactive) | > 30 µM (inactive) | > 30 µM (inactive) | > 30 µM (inactive) | > 30 µM (inactive) | 0.01 µM (active) |
| CC[C@@](C)(Nc1ccnc(-c2c[nH]c3ncccc23)n1)C(=O)NCC(F)(F)F [DECERNOTINIB] | > 30 µM (inactive) | > 30 µM (inactive) | > 30 µM (inactive) | > 30 µM (inactive) | > 30 µM (inactive) | > 30 µM (inactive) | 3.41 µM (active) | > 30 µM (inactive) |
| O=c1[nH]c([C@@H]2CCCN2)nc2c1oc1ccc(Cl)cc12 | > 30 µM (inactive) | > 30 µM (inactive) | > 30 µM (inactive) | > 30 µM (inactive) | 0.022 µM (active) | > 30 µM (inactive) | > 30 µM (inactive) | > 30 µM (inactive) |
| Cc1c(Cn2c(C)nc3c(C(=O)O)cc(N4CCOCC4)cc32)cccc1C(F)(F)F [GSK-2636771] | > 30 µM (inactive) | > 30 µM (inactive) | > 30 µM (inactive) | > 30 µM (inactive) | > 30 µM (inactive) | > 30 µM (inactive) | > 30 µM (inactive) | > 30 µM (inactive) |
| NC(=O)c1ccc(N(C(N)=O)c2c(F)cccc2F)nc1-c1ccc(F)cc1F [VX-702] | > 30 µM (inactive) | > 30 µM (inactive) | > 30 µM (inactive) | > 30 µM (inactive) | > 30 µM (inactive) | > 30 µM (inactive) | > 30 µM (inactive) | > 30 µM (inactive) |
| COCCN1CCN(Cc2ccc(-c3n[nH]c4c3C(=O)c3c(NC(=O)NN5CCOCC5)cccc3-4)cc2)CC1 [RGB-286638] | > 30 µM (inactive) | 0.154 µM (active) | > 30 µM (inactive) | > 30 µM (inactive) | > 30 µM (inactive) | > 30 µM (inactive) | > 30 µM (inactive) | 0.456 µM (active) |
| CCc1nc(C(N)=O)c(Nc2ccc(N3CCC(N4CCN(C)CC4)CC3)c(OC)c2)nc1NC1CCOCC1 [GILTERITINIB] | 0.184 µM | > 30 µM (inactive) | > 30 µM (inactive) | > 30 µM (inactive) | > 30 µM (inactive) | > 30 µM (inactive) | > 30 µM (inactive) | > 30 µM (inactive) |
| C=CC(=O)Nc1cccc(Nc2nc(Nc3ccc(N4CCN(C(C)=O)CC4)cc3OC)ncc2C(F)(F)F)c1 [ROCILETINIB] | > 30 µM (inactive) | > 30 µM (inactive) | > 30 µM (inactive) | > 30 µM (inactive) | > 30 µM (inactive) | > 30 µM (inactive) | > 30 µM (inactive) | > 30 µM (inactive) |
| O=C(NOC[C@H](O)CO)c1ccc(F)c(F)c1Nc1ccc(I)cc1F [MIRDAMETINIB] | > 30 µM (inactive) | > 30 µM (inactive) | > 30 µM (inactive) | > 30 µM (inactive) | > 30 µM (inactive) | > 30 µM (inactive) | > 30 µM (inactive) | > 30 µM (inactive) |
| O=C(NC[C@H](O)CO)c1ccncc1Nc1ccc(I)cc1F [PIMASERTIB] | > 30 µM (inactive) | > 30 µM (inactive) | > 30 µM (inactive) | > 30 µM (inactive) | > 30 µM (inactive) | > 30 µM (inactive) | > 30 µM (inactive) | > 30 µM (inactive) |
| Cc1cc(-c2cc(OC(=O)c3ccccc3)ccc2Cl)cc2nnc(Nc3ccc(OCCN4CCCC4)cc3)nc12 [TG100-801] | > 30 µM (inactive) | > 30 µM (inactive) | > 30 µM (inactive) | > 30 µM (inactive) | > 30 µM (inactive) | > 30 µM (inactive) | > 30 µM (inactive) | > 30 µM (inactive) |
